Results reported in patent publication US20250101032A1, “EXATECAN DERIVATIVES AND ANTIBODY-DRUG CONJUGATES THEREOF” (priority 2021, published 2025).
Converted amounts (≈) assume the structure as drawn. Where two headings read alike, the source gives them in different places.

How the values were obtained:
physchem = settings: 25 °C, pH 7.4, aqueous buffer, kinetic from dmso stock
Protocol: In-vitro kinetic solubilities of the compounds in PBS pH 7.4 buffer at 25° C. were determined by diluting compounds from 100% dimethyl sulfoxide (DMSO) into PBS buffer and measuring absorbance at 490, 590 and 650 nm. Stock concentrations in 100% DMSO were provided at 1-6 mM in 100% DMSO. Kinetic solubilities were determined by diluting test compounds from 100% DMSO into PBS pH 7.4 buffer, as duplicate, 10 point 2-fold serial dilution starting at 100× dilution of stock DMS solution into PBS buffer in a clear, flat bottom polystyrene assay plates. Total assay volume was 200 microliters. Solutions were mixed by plate shaking, incubated for 30 m at 25° C., and absorbance was read at 490, 590 and 650 nm. […] in PBS buffer was used as a blank. For each test compound, average optical density (GD) at each concentration was determined by averaging the blank corrected sum of absorption at 490 nm, 590 nm and 650 nm, over duplicate measurements. Turbidity threshold optical density value was set as a sum of mean plus two standard deviations of the mean of absorbances at 490, 590 and 650 nm for 1% (v/v) DMSO in PBS pH 7.4 buffer. Highest soluble concentration (micromolar) corresponded to the highest concentration at which average optical density was below optical density value set for turbidity threshold (Table 4). Amiodarone and propranolol were used as low and high solubility controls respectively.

SKBR3 = test: In vitro cytotoxicity assay (CellTiter-Glo), SKBR3; format: cell-based, Human; settings: read-out: Cytotoxicity IC50
Protocol: (§1) Human tumor cell lines, SK-BR-3, NCI-H292, HT-29, MCF-7, NCI-N87, and FaDu were obtained from ATCC. NCI-H292, HT-29, MCF-7, and NCI-N87 cells were cultured in RPMI-1640 media (Gibco, Life Technologies) supplemented with 10% v/v heat inactivated FBS (Corning), FaDu cells were maintained in DMEM media (Gibco, Life Technologies) supplemented with 10% v/v heat inactivated FBS (Corning). SK-BR-3 cells were maintained in McCoys 5A medium (Gibco, Life Technologies) supplemented with 10% […] heat inactivated FBS (Corning) at 37° C. in a humidified incubator containing 5% CO2.
(§2) Lyophilized compounds were dissolved in 100% dry DMSO, aliquots frozen and stored at −80° C. Concentration and purity of compound stock solutions in DMSO were determined by RP-HPLC Agilent 1100 platform with 1200 DAD and SofTA ELSD detectors, and the Agilent 6150 MS system (UV/VIS, ELSD purity and MS compound identity confirmation). Shimadzu 3.0 mm×30 mm XR ODS 2.2 μm column was run at 50° C., 1.5 mL/min. Solvent A: 0.1% Formic acid in water, Solvent B: 0.08% Formic acid in methanol-Gradient: 5%-100% B in 3.0 min, 100% solvent B for 0.3 min. Concentration of compounds in 100% DMSO determined by ELS ranged from 1-6 mM.
(§3) Cells were plated in 96-well white flat-bottomed plates (Corning) at 2.0×10^3 cells per well in 100 μL culture medium. After incubation for 24 hours, test compounds were added at a range of concentrations as ten point serial dilution as duplicates or triplicates. Following further incubation for 6 days 37° C., 5% CO2, cell viability was assessed with the use of a CellTiter-Glo Luminescent Cell Viability Assay (Promega). Luminescence was measured using the GloMax instrument (Promega). […] For a subset of payloads, each treatment was independently repeated two to eight times, and IC50 values were averaged. […] Standard deviation (stdev) is shown as (N/A) for treatment performed once.

HT29 = test: In vitro cytotoxicity assay (CellTiter-Glo), HT29; format: cell-based, Human; settings: read-out: Cytotoxicity IC50
Protocol: as §1, §2, §3

NCI-H292 = test: In vitro cytotoxicity assay (CellTiter-Glo), NCI-H292; format: cell-based, Human; settings: read-out: Cytotoxicity IC50
Protocol: as §1, §2, §3

MCF7 = test: In vitro cytotoxicity assay (CellTiter-Glo), MCF7; format: cell-based, Human; settings: read-out: Cytotoxicity IC50
Protocol: as §1, §2, §3

NCI-N87 = test: In vitro cytotoxicity assay (CellTiter-Glo), NCI-N87; format: cell-based, Human; settings: read-out: Cytotoxicity IC50
Protocol: as §1, §2, §3

FaDu = test: In vitro cytotoxicity assay (CellTiter-Glo), FaDu; format: cell-based, Human; settings: read-out: Cytotoxicity IC50
Protocol: as §1, §2, §3

SKOV3 = test: In vitro cytotoxicity assay (CellTiter-Glo), SKOV3; format: cell-based; settings: read-out: Cytotoxicity IC50
Protocol: (§4) Lyophilized compounds were dissolved in 100% dry DMSO, aliquots frozen and stored at −80° C. […] Shimadzu 3.0 mm×30 mm XR ODS 2.2 μm column was run at 50° C., 1.5 mL/min. Solvent A: 0.1% Formic acid in water, Solvent B: 0.08% Formic acid in methanol-Gradient: 5%-100% B in 3.0 min, 100% solvent B for 0.3 min.
as §3

BXPC3 = test: In vitro cytotoxicity assay (CellTiter-Glo), BXPC3; format: cell-based; settings: read-out: Cytotoxicity IC50
Protocol: as §4, §3

SMILES | solubility at 30 min (physchem) [µM] | IC50 (SKBR3; Homo sapiens, SK-BR-3, 144 h) [µM] | IC50 (HT29; Homo sapiens, HT-29, 144 h) [µM] | IC50 (NCI-H292; Homo sapiens, NCI-H292, 144 h) [µM] | IC50 (MCF7; Homo sapiens, MCF7, 144 h) [µM] | IC50 (NCI-N87; Homo sapiens, NCI-N87, 144 h) [µM] | IC50 (FaDu; Homo sapiens, FaDu, 144 h) [µM] | IC50 (SKOV3; Homo sapiens, SK-OV-3, 144 h) [µM] | IC50 (BXPC3; Homo sapiens, BXPC-3, 144 h) [µM] | IC50 (SKBR3; SKBR3 cells, 6 days incubation, mean of IC50 values) [µM] | IC50 (HT29; HT29 cells, 6 days incubation, mean of IC50 values) [µM] | IC50 (NCI-H292; NCI-H292 cells, 6 days incubation, mean of IC50 values) [µM] | IC50 (MCF7; MCF7 cells, 6 days incubation, mean of IC50 values) [µM] | IC50 (NCI-N87; NCI-N87 cells, 6 days incubation, mean of IC50 values) [µM] | IC50 (FaDu; FaDu cells, 6 days incubation, mean of IC50 values) [µM] | IC50 (SKOV3; SKOV3 cells, 6 days incubation, mean of IC50 values) [µM] | IC50 (BXPC3; BXPC3 cells, 6 days incubation, mean of IC50 values) [µM]
CC[C@@]1(O)C(=O)OCc2c1cc1n(c2=O)Cc2c-1nc1cc(F)c(C)c3c1c2[C@@H](NC(=O)Cc1cn(CCO)nn1)CC3 [Compound 66] | 21 (≈ 12.4 µg/mL) | 0.0073 | 0.0781 | 0.0247 | 0.0239 | 0.03 | 0.0079 | 0.0433 | 0.0098 | – | – | – | – | – | – | – | –
CC[C@@]1(O)C(=O)OCc2c1cc1n(c2=O)Cc2c-1nc1cc(F)c(C)c3c1c2[C@@H](NC(=O)OCCO)CC3 [Compound 22] | 23 (≈ 12 µg/mL) | 0.0012 | 0.0057 | 0.0027 | 0.0023 | 0.0026 | 0.0007 | 0.0019 | 0.0007 | – | – | – | – | – | – | – | –
CC[C@@]1(O)C(=O)OCc2c1cc1n(c2=S)Cc2c-1nc1cc(F)c(C)c3c1c2[C@@H](NC(=S)CO)CC3 [Compound 148] | 3 (≈ 1.58 µg/mL) | 0.0003 | 0.0009 | 0.0011 | 0.0001 | 0.0002 | – | 0.0002 | 0.0001 | – | – | – | – | – | – | – | –
CC[C@@]1(O)C(=O)OCc2c1cc1n(c2=O)Cc2c-1nc1cc(F)c(C)c3c1c2[C@@H](NS(=O)(=O)CCCO)CC3 [Compound 110] | 18 (≈ 10 µg/mL) | 0.0076 | 0.0286 | 0.0188 | 0.0224 | 0.0182 | 0.0156 | 0.0592 | 0.0157 | – | – | – | – | – | – | – | –
CC[C@@]1(O)C(=O)OCc2c1cc1n(c2=O)Cc2c-1nc1cc(F)c(C)c3c1c2[C@@H](NC(=O)NCCO)CC3 [Compound 42] | 8 (≈ 4.18 µg/mL) | 0.0052 | 0.0102 | 0.0024 | 0.0118 | 0.012 | 0.0029 | 0.0195 | 0.0056 | – | – | – | – | – | – | – | –
CC[C@@]1(O)C(=O)OCc2c1cc1n(c2=O)Cc2c-1nc1cc(F)c(C)c3c1c2[C@@H](NC(=O)[C@@H]1C[C@H]1CO)CC3 (single isomer, unassigned) [Compound 111-A] | 23 (≈ 12.3 µg/mL) | 0.006 | 0.0344 | 0.018 | 0.0167 | 0.0131 | 0.0019 | 0.0245 | 0.0056 | – | – | – | – | – | – | – | –
CC[C@@]1(O)C(=O)OCc2c1cc1n(c2=O)Cc2c-1nc1cc(F)c(C)c3c1c2[C@@H](NC(=O)C1OC(O)C(O)C1O)CC3 (stereo partly shown) [Compound 100] | 29 (≈ 16.9 µg/mL) | 0.036 | 0.0934 | 0.228 | 0.0288 | 0.0786 | 0.007 | 0.0905 | 0.0269 | – | – | – | – | – | – | – | –
CC[C@@]1(O)C(=O)OCc2c1cc1n(c2=O)Cc2c-1nc1cc(F)c(C)c3c1c2[C@@H](Nc1c(NCC(O)CO)c(=O)c1=O)CC3 (stereo partly shown) [Compound 115] | 23 (≈ 13.9 µg/mL) | 0.0628 | 0.155 | 0.128 | 0.047 | 0.127 | 0.0561 | 0.174 | 0.055 | – | – | – | – | – | – | – | –
CC[C@@]1(O)C(=O)OCc2c1cc1n(c2=O)Cc2c-1nc1cc(F)c(C)c3c1c2[C@@H](N(CCO)C(C)=O)CC3 [Compound 136] | 23 (≈ 12 µg/mL) | 0.0237 | 0.0368 | 0.0163 | 0.0184 | 0.0402 | 0.0052 | 0.0984 | 0.0249 | – | – | – | – | – | – | – | –
CC[C@@]1(O)C(=O)OCc2c1cc1n(c2=O)Cc2c-1nc1cc(F)c(C)c3c1c2[C@@H](NCc1cnnn1CCO)CC3 [Compound 109] | 17 (≈ 9.53 µg/mL) | 0.0073 | 0.0568 | 0.0261 | 0.0128 | 0.0293 | 0.0083 | 0.0324 | 0.0108 | – | – | – | – | – | – | – | –
CC[C@@]1(O)C(=O)OCc2c1cc1n(c2=O)Cc2c-1nc1cc(F)c(C)c3c1c2[C@@H](NC(=O)c1cn(CCO)nn1)CC3 [Compound 52] | 25 (≈ 14.4 µg/mL) | 0.0025 | 0.0233 | 0.0068 | 0.0059 | 0.0101 | 0.0042 | 0.0129 | 0.0034 | – | – | – | – | – | – | – | –
CC[C@@]1(O)C(=O)OCc2c1cc1n(c2=O)Cc2c-1nc1cc(F)c(C)c3c1c2[C@@H](NC(=O)NCC(O)CO)CC3 (stereo partly shown) [Compound 118] | 30 (≈ 16.6 µg/mL) | 0.0239 | 0.291 | 0.0884 | 0.0459 | 0.0966 | 0.0175 | 0.0967 | 0.0527 | – | – | – | – | – | – | – | –
CC[C@@]1(O)C(=O)OCc2c1cc1n(c2=O)Cc2c-1nc1cc(F)c(C)c3c1c2[C@@H](NC(=O)NC(CO)(CO)CO)CC3 [Compound 48] | 28 (≈ 16.3 µg/mL) | 0.0126 | 0.0636 | 0.0271 | 0.0118 | 0.043 | 0.0028 | 0.0778 | 0.0203 | – | – | – | – | – | – | – | –
CC[C@@]1(O)C(=O)OCc2c1cc1n(c2=O)Cc2c-1nc1cc(F)c(C)c3c1c2[C@@H](Nc1c(O)c(=O)c1=O)CC3 [Compound 129] | 22 (≈ 11.7 µg/mL) | 0.169 | 0.282 | 0.208 | 0.0793 | 0.3 | 0.0929 | 0.265 | 0.134 | – | – | – | – | – | – | – | –
CC[C@@]1(O)C(=O)OCc2c1cc1n(c2=O)Cc2c-1nc1cc(F)c(C)c3c1c2[C@@H](NCc1cn(CCO)nn1)CC3 [Compound 108] | 10 (≈ 5.61 µg/mL) | 0.0029 | 0.0132 | 0.0081 | 0.0044 | 0.0083 | 0.0024 | 0.0066 | 0.0023 | – | – | – | – | – | – | – | –
CC[C@@]1(O)C(=O)OCc2c1cc1n(c2=O)Cc2c-1nc1cc(F)c(C)c3c1c2[C@@H](NC(=O)CO)CC3 [DXD] | – | – | – | – | – | – | – | – | – | 0.0013 | 0.0069 | 0.0038 | 0.0027 | 0.0047 | 0.0009 | 0.0086 | 0.0023
